Results from patent publication US9062033B2, “Chemical compounds” (Rottapharm Biotech S.r.l., priority 2011, dated 2015).
Read-outs that look alike come from different tables or passages of the source.

Assays:
human OX2 receptors = target: T1, human OX2 receptors (Homo sapiens, UniProt O43614); assay: Antagonistic activity against human OX2 receptor, [Ca2+]i fluorimetry (Fluo-4NW) in transfected HEK-293 cells activated with orexin-B; type: cell-based
T1 construct: expressed in transfected cells; host or cells: HEK-293 cells
T1 sequence (O43614 1-444): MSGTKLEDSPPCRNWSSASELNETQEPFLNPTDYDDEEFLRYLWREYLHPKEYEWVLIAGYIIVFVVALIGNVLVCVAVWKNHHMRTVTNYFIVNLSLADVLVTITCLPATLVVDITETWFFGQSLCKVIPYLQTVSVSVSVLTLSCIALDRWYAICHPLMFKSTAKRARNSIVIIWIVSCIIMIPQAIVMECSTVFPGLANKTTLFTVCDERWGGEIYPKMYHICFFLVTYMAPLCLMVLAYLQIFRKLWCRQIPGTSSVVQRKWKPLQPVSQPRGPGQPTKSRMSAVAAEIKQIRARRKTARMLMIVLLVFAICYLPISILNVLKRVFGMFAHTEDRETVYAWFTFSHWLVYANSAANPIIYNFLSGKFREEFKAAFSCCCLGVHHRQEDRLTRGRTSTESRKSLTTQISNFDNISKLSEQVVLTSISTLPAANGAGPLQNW
Experimental: (§1) In a typical experiment, the antagonistic activity against human OX1 and OX2 receptors is determined by using CHO e HEK-293 cells transfected with human recombinant OX1 and OX2 receptors respectively, seeded at density of 2 and 3×10^4 cells/well respectively in a 96 fluorimetry well plate. Thus the plate was loaded with the calcium dye (Fluo-4NW/probenecid in HBSS, Hepes 20 mM, pH 7.4; Invitrogen) at 37° C. for 60 min. Afterward the temperature was equilibrated at 22° C. for 15 min and the [Ca2+]i measured directly on the plate by using a fluorescent plate reader (CellLux Perkin Elmer).
(§2) Invention compounds were dissolved in DMSO, diluted in HBSS (DMSO, 0.3% final) and added to the wells. After 5 min CHO cells were activated with orexin-A, 3 nM while HEK-293 cells were activated with orexin-B, 10 nM.
(§3) The compounds, dissolved in DMSO and diluted in the medium (DMSO, 0.3% final), have been analysed in the 1 nM-1 μM concentration range (every concentration in duplicate). The antagonistic activity has been expressed as pKb (co-logarithm of the apparent dissociation constant calculated by using the modified Cheng Prusoff equation).
(§4) The results are expressed as percent of control specific […] response ((measured specific response/control specific agonist response)×100) obtained in the presence of the test compounds.
(§5) The IC50 values (concentration causing a half-maximal inhibition of the control specific agonist response) were determinated by non-linear regression analysis of the concentration curves generated with mean replicate values using hill equation curve fitting. The IC50 values are obtained by the arithmetical mean of at least two experiments. Compounds of the following example tested according to this example gave pKbs as follows: […]

human OX1 receptors = target: T2, human OX1 receptors (Homo sapiens, UniProt O43613); assay: Antagonistic activity against human OX1 receptor, [Ca2+]i fluorimetry (Fluo-4NW) in transfected CHO cells activated with orexin-A; type: cell-based; settings: CHO cells transfected with human recombinant OX1; orexin-A 3 nM; pKb = co-logarithm of apparent dissociation constant, modified Cheng Prusoff
T2 construct: expressed in transfected cells; host or cells: CHO cells
T2 sequence (O43613 1-425): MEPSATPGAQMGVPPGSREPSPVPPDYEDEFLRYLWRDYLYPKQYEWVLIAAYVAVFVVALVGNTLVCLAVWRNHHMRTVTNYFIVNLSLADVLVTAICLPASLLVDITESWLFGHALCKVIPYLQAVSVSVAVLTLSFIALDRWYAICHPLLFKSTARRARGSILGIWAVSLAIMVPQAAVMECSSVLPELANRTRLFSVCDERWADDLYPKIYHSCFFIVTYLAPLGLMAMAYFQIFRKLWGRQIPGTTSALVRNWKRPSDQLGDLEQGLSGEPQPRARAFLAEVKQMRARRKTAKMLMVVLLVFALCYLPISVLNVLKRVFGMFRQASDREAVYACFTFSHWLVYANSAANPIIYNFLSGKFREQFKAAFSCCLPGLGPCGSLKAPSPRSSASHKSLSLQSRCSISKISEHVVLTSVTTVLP
Experimental: as §1, §2, §3, §4, §5

[1] = HEK-293 cells transfected with human recombinant OX2, orexin-B 10 nM, pKb = co-logarithm of apparent dissociation constant, modified Cheng Prusoff

In the case of Cc1ccc(-c2ncccn2)c(C(=O)N2CC3(CC3)C[C@H]2CNc2ccc(Cl)cn2)c1 [Example 51 of WO2011006960, reference compound], the Kb (human OX2 receptors; comparison table with compound of WO2011006960, read-out: pKb OX2 (converted)) is reported as > 10000 nM.
Cc1ccc(-c2ncccn2)c(C(=O)N2CC3(CC3)C[C@H]2CNc2ncc(C(F)(F)F)cc2F)c1 [Compound 1l, (S)-(6-(((3-fluoro-5-(trifluoromethyl)pyridin-2-yl)amino)methyl)-5-azaspiro[2.4]heptan-5-yl)(5-methyl-2-(pyrimidin-2-yl)phenyl)methanone] showed a Kb (human OX2 receptors; [1]) of 25.1 nM and a Kb (human OX1 receptors) of 5.01 nM.
In the case of O=C(c1cc(Cl)ccc1-c1ncccn1)N1CC2(CC2)C[C@H]1CNc1ccc(C(F)(F)F)cn1 [Compound 1a, (S)-(5-chloro-2-(pyrimidin-2-yl)phenyl)(6-(((5-(trifluoromethyl)pyridin-2-yl)amino)methyl)-5-azaspiro[2.4]heptan-5-yl)methanone], the Kb (human OX2 receptors; [1]) is reported as 63.1 nM and the Kb (human OX1 receptors) is reported as 7.94 nM.
Molecule Cc1ccc(-c2ccc(F)cc2)c(C(=O)N2CC3(CC3)C[C@H]2CNc2ccc(C(F)(F)F)cn2)n1 [Compound 3f, (S)-(3-(4-fluorophenyl)-6-methylpyridin-2-yl)(6-(((5-(trifluoromethyl)pyridin-2-yl)amino)methyl)-5-azaspiro[2.4]heptan-5-yl)methanone] has a Kb (human OX2 receptors; [1]) of 7.94 nM and a Kb (human OX1 receptors) of 7.94 nM.
For Cc1ccc(-c2ncccn2)c(C(=O)N2CC3(CC3)C[C@H]2CNc2cc(C(F)(F)F)cc(C)n2)c1 [Compound 1m, (S)-(5-methyl-2-(pyrimidin-2-yl)phenyl)(6-(((6-methyl-4-(trifluoromethyl)pyridin-2-yl)amino)methyl)-5-azaspiro[2.4]heptan-5-yl)methanone], the Kb (human OX2 receptors; [1]) was 12.6 nM and the Kb (human OX1 receptors) was 15.8 nM.
O=C(c1ncccc1-c1ccccc1)N1CC2(CC2)C[C@H]1CNc1ccc(C(F)(F)F)cn1 [Compound E5, (S)-(3-phenylpyridin-2-yl)(6-(((5-(trifluoromethyl)-pyridin-2-yl)amino)methyl)-5-azaspiro[2.4]heptan-5-yl)methanone] was tested, and the Kb (human OX2 receptors; [1]) was 50.1 nM and the Kb (human OX1 receptors) was 10 nM.
In the case of O=C(c1c(F)cccc1-c1ncccn1)N1CC2(CC2)C[C@H]1CNc1cc(C(F)(F)F)ccn1 [Compound 1h, (S)-(2-fluoro-6-(pyrimidin-2-yl)phenyl)(6-(((4-(trifluoromethyl)pyridin-2-yl)amino)methyl)-5-azaspiro[2.4]heptan-5-yl)methanone], the Kb (human OX2 receptors; [1]) is reported as 12.6 nM and the Kb (human OX1 receptors) is reported as 39.8 nM.
Cc1ccc(-c2ccc(F)c(F)c2)c(C(=O)N2CC3(CC3)C[C@H]2CNc2ccc(C(F)(F)F)cn2)n1 [Compound E11, (S)-(3-(3,4-difluorophenyl)-6-methylpyridin-2-yl)(6-(((5-(trifluoromethyl)pyridin-2-yl)amino)methyl)-5-azaspiro[2.4]heptan-5-yl)methanone] was tested, and the Kb (human OX2 receptors; [1]) was 20 nM and the Kb (human OX1 receptors) was 12.6 nM.
O=C(c1cc(Br)ccc1-c1ncccn1)N1CC2(CC2)C[C@H]1CNc1ccc(C(F)(F)F)cn1 [Compound 1e, (S)-(5-bromo-2-(pyrimidin-2-yl)phenyl)(6-(((5-(trifluoromethyl)pyridin-2-yl)amino)methyl)-5-azaspiro[2.4]heptan-5-yl)methanone] gave a Kb (human OX2 receptors; [1]) of 20 nM and a Kb (human OX1 receptors) of 3.16 nM.
In the case of Cc1ccc(-c2ncccn2)c(C(=O)N2CC3(CC3)C[C@H]2CNc2ncc(C(F)(F)F)cc2Cl)n1 [Compound 3g, (S)-(6-(((3-chloro-5-(trifluoromethyl)pyridin-2-yl)amino)methyl)-5-azaspiro[2.4]heptan-5-yl)(6-methyl-3-(pyrimidin-2-yl)pyridin-2-yl)methanone], the Kb (human OX2 receptors; [1]) is reported as 10 nM and the Kb (human OX1 receptors) is reported as 5.01 nM.
For Cc1ccc(-c2ncccn2)c(C(=O)N2CC3(CC3)C[C@H]2CNc2nc3cc(Cl)ccc3o2)n1 [Compound E10, (S)-(6-(((5-chlorobenzo[d]oxazol-2-yl)amino)methyl)-5-azaspiro[2.4]heptan-5-yl)(6-methyl-3-(pyrimidin-2-yl)pyridin-2-yl)methanone], the Kb (human OX2 receptors; [1]) was 79.4 nM and the Kb (human OX1 receptors) was 7.94 nM.
Molecule Cc1ccc(-c2cccnc2)c(C(=O)N2CC3(CC3)C[C@H]2CNc2ccc(C(F)(F)F)cn2)n1 [Compound E6, (S)-(6-methyl-[3,3′-bipyridin]-2-yl)(6-(((5-(trifluoromethyl)pyridin-2-yl)amino)methyl)-5-azaspiro[2.4]heptan-5-yl)methanone] has a Kb (human OX2 receptors; [1]) of 200 nM and a Kb (human OX1 receptors) of 100 nM.
In the case of Cc1ccc(-c2ncccn2)c(C(=O)N2CC3(CC3)C[C@H]2CNc2ncc(Cl)cc2F)n1 [Compound 3c, (S)-(6-(((5-chloro-3-fluoropyridin-2-yl)amino)methyl)-5-azaspiro[2.4]heptan-5-yl)(6-methyl-3-(pyrimidin-2-yl)pyridin-2-yl)methanone], the Kb (human OX2 receptors; [1]) is reported as 39.8 nM and the Kb (human OX1 receptors) is reported as 6.31 nM.
O=C(c1ncccc1-c1ccccn1)N1CC2(CC2)C[C@H]1CNc1ccc(C(F)(F)F)cn1 [Compound E7, (S)-[2,3′-bipyridin]-2′-yl(6-(((5-(trifluoromethyl)pyridin-2-yl)amino)methyl)-5-azaspiro[2.4]heptan-5-yl)methanone] was tested, and the Kb (human OX2 receptors; [1]) was 126 nM and the Kb (human OX1 receptors) was 3.98 nM.
With Cc1nc(C(=O)N2CC3(CC3)C[C@H]2CNc2nc3ccc(Cl)cc3s2)c(-c2ccccc2)s1 [Compound 2i, (S)-(6-(((6-chlorobenzo[d]thiazol-2-yl)amino)methyl)-5-azaspiro[2.4]heptan-5-yl)(2-methyl-5-phenylthiazol-4-yl)methanone] the Kb (human OX2 receptors; [1]) was 31.6 nM and the Kb (human OX1 receptors) was 12.6 nM.
Cc1nc(C(=O)N2CC3(CC3)C[C@H]2CNc2ccc(Cl)cn2)c(-c2ccccc2)s1 [Compound 2a, (S)-(6-(((5-chloropyridin-2-yl)amino)methyl)-5-azaspiro[2.4]heptan-5-yl)(2-methyl-5-phenylthiazol-4-yl)methanone] gave a Kb (human OX2 receptors; [1]) of 79.4 nM and a Kb (human OX1 receptors) of 5.01 nM.
CS(=O)(=O)c1ccc(-c2ccccc2)c(C(=O)N2CC3(CC3)C[C@H]2CNc2ccc(C(F)(F)F)cn2)c1 [Compound 1d, (S)-(4-(methylsulfonyl)-[1,1′-biphenyl]-2-yl)(6-(((5-(trifluoromethyl)pyridin-2-yl)amino)methyl)-5-azaspiro[2.4]heptan-5-yl)methanone] showed a Kb (human OX2 receptors; [1]) of 79.4 nM and a Kb (human OX1 receptors) of 200 nM.
Molecule Cc1nc(C(=O)N2CC3(CC3)C[C@H]2CNc2nccc3ccccc23)c(-c2ccccc2)s1 [Compound 2e, (S)-(6-((isoquinolin-1-ylamino)methyl)-5-azaspiro[2.4]heptan-5-yl)(2-methyl-5-phenylthiazol-4-yl)methanone] has a Kb (human OX2 receptors; [1]) of 2.51 nM and a Kb (human OX1 receptors) of 2.51 nM.
Work on Cc1ccc(-c2ccc(C)nc2C(=O)N2CC3(CC3)C[C@H]2CNc2ccc(C(F)(F)F)cn2)c(F)c1 [Compound E4, (S)-(3-(2-fluoro-4-methylphenyl)-6-methylpyridin-2-yl)(6-(((5-(trifluoromethyl)pyridin-2-yl)amino)methyl)-5-azaspiro[2.4]heptan-5-yl)methanone] yielded a Kb (human OX2 receptors; [1]) of 31.6 nM and a Kb (human OX1 receptors) of 39.8 nM.
In the case of Cc1ccc(OCc2cccc(F)c2F)c(C(=O)N2CC3(CC3)C[C@H]2CNc2ccc(C(F)(F)F)cn2)n1 [Compound 3l, (S)-(3-((2,3-difluorobenzyl)oxy)-6-methylpyridin-2-yl)(6-(((5-(trifluoromethyl)pyridin-2-yl)amino)methyl)-5-azaspiro[2.4]heptan-5-yl)methanone], the Kb (human OX2 receptors; [1]) is reported as 7.94 nM and the Kb (human OX1 receptors) is reported as 25.1 nM.
Molecule O=C(c1cc(Cl)ccc1-c1ncccn1)N1CC2(CC2)C[C@H]1CNc1ncc(C(F)(F)F)cn1 [Compound 1u, (S)-(5-chloro-2-(pyrimidin-2-yl)phenyl)(6-(((5-(trifluoromethyl)pyrimidin-2-yl)amino)methyl)-5-azaspiro[2.4]heptan-5-yl)methanone] has a Kb (human OX2 receptors; [1]) of 200 nM and a Kb (human OX1 receptors) of 15.8 nM.
